Patent US7498409B2, “Screening assay for TLR7, TLR8 and TLR9 agonists and antagonists” (Schering Corporation, priority 2005, dated 2009)
Each block holds one compound with its values, some of them ahead of it.

Experiments:
[1] = molecular target: T1, mutant TLR8 containing a deletion in the second LRR (Homo sapiens, UniProt Q9NR97, DEL100-104); test: NFκB-luciferase reporter assay in transfected HEK 293 cells, mutant TLR8 (pCMVhuTLR8Δ2); assay type: cell-based; details: HEK 293, 5 h
T1 construct: expressed in transfected cells; host or cells: HEK 293
T1 sequence (Q9NR97 with tags, fused parts or gaps DEL100-104): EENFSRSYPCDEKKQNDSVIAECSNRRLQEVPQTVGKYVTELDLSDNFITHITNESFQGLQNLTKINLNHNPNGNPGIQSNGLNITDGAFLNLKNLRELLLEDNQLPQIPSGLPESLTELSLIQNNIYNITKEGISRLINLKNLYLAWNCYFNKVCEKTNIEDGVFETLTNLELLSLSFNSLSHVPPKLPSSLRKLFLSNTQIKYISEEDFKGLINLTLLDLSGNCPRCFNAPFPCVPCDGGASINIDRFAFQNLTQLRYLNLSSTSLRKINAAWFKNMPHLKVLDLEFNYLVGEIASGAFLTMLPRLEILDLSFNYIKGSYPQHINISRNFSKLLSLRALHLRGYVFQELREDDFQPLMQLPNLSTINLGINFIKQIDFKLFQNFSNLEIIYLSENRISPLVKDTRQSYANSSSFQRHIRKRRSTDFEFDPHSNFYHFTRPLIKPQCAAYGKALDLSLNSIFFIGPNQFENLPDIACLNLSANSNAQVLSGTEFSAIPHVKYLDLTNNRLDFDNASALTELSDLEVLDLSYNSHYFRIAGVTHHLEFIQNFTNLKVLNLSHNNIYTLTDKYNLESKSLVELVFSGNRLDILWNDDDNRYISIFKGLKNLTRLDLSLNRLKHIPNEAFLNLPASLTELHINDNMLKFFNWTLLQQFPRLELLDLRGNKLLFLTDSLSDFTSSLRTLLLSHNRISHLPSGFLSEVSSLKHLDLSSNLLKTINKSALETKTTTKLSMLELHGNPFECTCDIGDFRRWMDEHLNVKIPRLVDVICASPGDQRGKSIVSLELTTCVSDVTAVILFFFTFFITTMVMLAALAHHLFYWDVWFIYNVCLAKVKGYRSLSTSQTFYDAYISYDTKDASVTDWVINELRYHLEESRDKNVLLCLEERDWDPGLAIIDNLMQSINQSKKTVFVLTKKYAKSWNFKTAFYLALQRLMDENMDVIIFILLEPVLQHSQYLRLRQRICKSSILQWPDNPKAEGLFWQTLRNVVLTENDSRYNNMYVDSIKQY
Description: The mutation was confirmed by DNA sequencing.
(§1) Wells without agonist served as negative controls.

wild-type TLR8 = molecular target: T2, wild-type TLR8 (Homo sapiens, UniProt Q9NR97); test: NFκB-luciferase reporter assay in transfected HEK 293 cells, wild-type TLR8; assay type: cell-based
T2 construct: printed for the mutant only, inferred for the wild type (N); expressed in transfected cells; host or cells: HEK 293
T2 sequence (Q9NR97 1-1059 isoform Q9NR97-2): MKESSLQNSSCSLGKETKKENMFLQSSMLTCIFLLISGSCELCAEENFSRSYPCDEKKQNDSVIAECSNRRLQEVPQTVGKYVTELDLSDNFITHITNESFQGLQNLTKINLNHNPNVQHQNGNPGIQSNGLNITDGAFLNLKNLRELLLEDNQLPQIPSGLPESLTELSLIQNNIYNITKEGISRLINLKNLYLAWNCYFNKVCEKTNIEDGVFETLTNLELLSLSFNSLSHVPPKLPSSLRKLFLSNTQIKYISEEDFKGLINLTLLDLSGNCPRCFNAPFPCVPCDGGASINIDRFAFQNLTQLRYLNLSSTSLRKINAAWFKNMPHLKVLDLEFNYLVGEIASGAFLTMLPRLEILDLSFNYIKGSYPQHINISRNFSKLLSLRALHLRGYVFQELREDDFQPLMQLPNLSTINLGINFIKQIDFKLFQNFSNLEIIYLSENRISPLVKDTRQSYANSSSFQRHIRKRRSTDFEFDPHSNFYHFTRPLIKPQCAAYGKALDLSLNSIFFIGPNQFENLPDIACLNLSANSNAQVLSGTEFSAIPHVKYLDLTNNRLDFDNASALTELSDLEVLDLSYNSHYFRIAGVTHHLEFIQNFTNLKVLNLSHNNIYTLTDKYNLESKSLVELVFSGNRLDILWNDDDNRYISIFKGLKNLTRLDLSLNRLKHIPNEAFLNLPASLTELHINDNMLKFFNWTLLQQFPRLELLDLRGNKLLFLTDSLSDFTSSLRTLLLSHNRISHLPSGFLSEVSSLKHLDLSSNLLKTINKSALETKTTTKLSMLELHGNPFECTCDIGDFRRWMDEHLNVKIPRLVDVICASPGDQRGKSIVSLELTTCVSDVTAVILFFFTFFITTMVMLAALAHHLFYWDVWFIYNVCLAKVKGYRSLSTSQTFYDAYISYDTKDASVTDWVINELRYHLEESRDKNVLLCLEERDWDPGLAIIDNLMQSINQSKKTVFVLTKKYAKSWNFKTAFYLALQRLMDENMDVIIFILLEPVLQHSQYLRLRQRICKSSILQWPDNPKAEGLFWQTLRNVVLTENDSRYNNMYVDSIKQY
Description: as §1

[2] = molecular target: T3, mutant TLR7 containing a deletion in the second LRR (Homo sapiens, UniProt Q9NYK1, DEL102-106); test: NFκB-luciferase reporter assay in transfected HEK 293 cells, mutant TLR7 (pCMVhuTLR7Δ2); assay type: cell-based; parameters: fold lower concentration sufficient for full activation of mutant TLR7 versus wild-type TLR7: dose or concentration left out as unconfirmed
T3 construct: expressed in transfected cells; host or cells: HEK 293
T3 sequence (Q9NYK1 with tags, fused parts or gaps DEL102-106): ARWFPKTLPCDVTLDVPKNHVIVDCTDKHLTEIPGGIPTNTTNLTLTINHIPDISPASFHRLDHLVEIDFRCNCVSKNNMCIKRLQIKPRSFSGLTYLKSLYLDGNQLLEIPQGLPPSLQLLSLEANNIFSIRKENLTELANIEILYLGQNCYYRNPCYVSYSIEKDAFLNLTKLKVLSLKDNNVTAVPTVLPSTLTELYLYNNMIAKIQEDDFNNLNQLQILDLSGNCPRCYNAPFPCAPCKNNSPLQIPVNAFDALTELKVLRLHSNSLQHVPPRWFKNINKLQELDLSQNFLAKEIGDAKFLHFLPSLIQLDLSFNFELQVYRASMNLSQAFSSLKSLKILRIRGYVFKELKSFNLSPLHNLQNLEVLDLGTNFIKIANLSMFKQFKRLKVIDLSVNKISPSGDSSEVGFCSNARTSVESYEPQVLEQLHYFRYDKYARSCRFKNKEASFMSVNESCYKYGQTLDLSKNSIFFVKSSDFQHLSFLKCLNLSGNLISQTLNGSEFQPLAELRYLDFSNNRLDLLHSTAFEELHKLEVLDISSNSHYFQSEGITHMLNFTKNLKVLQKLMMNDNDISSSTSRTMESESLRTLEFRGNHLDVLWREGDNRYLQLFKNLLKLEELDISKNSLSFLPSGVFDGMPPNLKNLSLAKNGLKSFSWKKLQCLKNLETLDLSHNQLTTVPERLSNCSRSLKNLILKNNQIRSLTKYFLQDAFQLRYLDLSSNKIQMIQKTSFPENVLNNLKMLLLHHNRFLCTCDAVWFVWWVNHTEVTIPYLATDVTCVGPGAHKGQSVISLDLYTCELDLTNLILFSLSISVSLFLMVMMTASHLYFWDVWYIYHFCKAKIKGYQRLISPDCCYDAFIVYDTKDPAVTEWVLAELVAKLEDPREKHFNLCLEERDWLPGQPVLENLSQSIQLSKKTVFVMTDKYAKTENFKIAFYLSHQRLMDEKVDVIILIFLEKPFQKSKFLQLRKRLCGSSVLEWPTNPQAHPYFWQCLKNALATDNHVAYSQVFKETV
Description: (§2) ID NO: 11) and the antisense primer [NT] ID NO: 12). […] The mutation was confirmed by DNA sequencing. […] Wells without agonist served as negative controls.

[3] = tested on: mutant TLR7 containing a deletion in the second LRR; test: as above; assay type: cell-based, human; parameters: fold lower concentration sufficient for full activation of mutant TLR7 versus wild-type TLR7: dose or concentration left out as unconfirmed
Description: as §2

wild-type TLR7 = molecular target: T4, wild-type TLR7 (Homo sapiens, UniProt Q9NYK1); test: NFκB-luciferase reporter assay in transfected HEK 293 cells, wild-type TLR7; assay type: cell-based
T4 construct: expressed in transfected cells; host or cells: HEK 293
T4 sequence (Q9NYK1 27-1049): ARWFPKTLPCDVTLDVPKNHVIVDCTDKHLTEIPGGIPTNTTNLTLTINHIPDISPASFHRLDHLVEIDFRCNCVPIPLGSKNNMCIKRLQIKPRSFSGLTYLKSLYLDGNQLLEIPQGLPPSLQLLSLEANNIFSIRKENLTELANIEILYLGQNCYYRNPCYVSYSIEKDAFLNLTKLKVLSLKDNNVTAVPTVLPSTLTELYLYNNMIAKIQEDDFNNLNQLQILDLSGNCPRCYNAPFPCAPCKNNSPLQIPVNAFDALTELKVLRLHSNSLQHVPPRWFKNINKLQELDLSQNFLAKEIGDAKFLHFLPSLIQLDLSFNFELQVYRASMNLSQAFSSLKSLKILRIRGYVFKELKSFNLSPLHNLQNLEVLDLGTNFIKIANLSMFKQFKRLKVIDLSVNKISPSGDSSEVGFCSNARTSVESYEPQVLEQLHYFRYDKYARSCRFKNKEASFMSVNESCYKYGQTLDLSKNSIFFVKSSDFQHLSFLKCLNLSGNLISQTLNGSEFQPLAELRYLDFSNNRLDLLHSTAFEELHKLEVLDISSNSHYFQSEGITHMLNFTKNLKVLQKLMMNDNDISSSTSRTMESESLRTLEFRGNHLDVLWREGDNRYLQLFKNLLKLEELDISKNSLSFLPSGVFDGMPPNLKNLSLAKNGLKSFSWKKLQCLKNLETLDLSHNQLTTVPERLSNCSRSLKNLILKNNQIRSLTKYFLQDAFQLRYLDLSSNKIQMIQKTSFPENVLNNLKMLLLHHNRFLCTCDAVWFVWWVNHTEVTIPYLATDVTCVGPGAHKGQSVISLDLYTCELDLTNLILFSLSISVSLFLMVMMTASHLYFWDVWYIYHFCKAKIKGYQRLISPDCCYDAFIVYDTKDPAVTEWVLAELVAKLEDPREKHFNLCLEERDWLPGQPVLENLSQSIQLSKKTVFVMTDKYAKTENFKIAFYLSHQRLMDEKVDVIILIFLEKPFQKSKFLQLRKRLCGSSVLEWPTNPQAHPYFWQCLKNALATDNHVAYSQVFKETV
Description: as §1

- activation of mutant TLR8 (luciferase) ([1]; 4.5 mM uridine): 15 fold
- activation of wild-type TLR8 (luciferase) (wild-type TLR8; 4.5 mM uridine, HEK 293, 5 h): 3 fold
SMILES: O=c1ccn([C@@H]2O[C@H](CO)[C@@H](O)[C@H]2O)c(=O)[nH]1 [uridine]

- induction of luciferase activity ([2]; 10 nM R848, HEK 293, 5 h, vs medium alone): 6 fold
- activation of wild-type TLR7 (luciferase activity) (wild-type TLR7; 10 nM R848, HEK 293, 5 h): did not result in significant activation
- concentration giving close-to-maximum activation of wild-type TLR7 (wild-type TLR7; HEK 293, NFκB-luciferase): 1 µM
- induction of luciferase ([1]; 50 nm of R848): ~10 fold
- concentration required to achieve 5-fold induction of luciferase (wild-type TLR8; HEK 293, NFκB-luciferase): at least 0.5 μM
SMILES: CCOCc1nc2c(N)nc3ccccc3c2n1CC(C)(C)O [R848]
- fold lower concentration sufficient for full activation of mutant TLR7 versus wild-type TLR7 ([3]; compared with for wild-type TLR7): 10 fold

- concentration achieving the same activation with mutant TLR7 ([2]; same activation as wild-type TLR7 at >0.5 mM): 0.1 mM
- concentration at which wild-type TLR7 is activated (wild-type TLR7; HEK 293, NFκB-luciferase): greater than 0.5 mM
SMILES: C=CCn1c(=O)n([C@@H]2O[C@H](CO)[C@@H](O)[C@H]2O)c2nc(N)[nH]c(=O)c21 [loxoribine]
- fold lower concentration for same activation of mutant TLR7 versus wild-type TLR7 ([3]; 0.1 mM versus 0.5 mM): 5 fold
